Data set [1] deals with rice stem borers (Chilo suppressalis Walker). The data set can be described thus: Mortality test with rice stem borers by topical application method. It is filed as in vivo. Conditions: 24 h; for mortality at 0.001 mg: read-out: Pesticidal effect, rice stem borer. The protocol:
Mortality test with rice stem borers (Chilo suppressalis Walker) by topical application method
Using a microsyringe, 0.5 μl of the above solution was applied to the thoracic abdominal region of each final-instar larva of rice stem borer (Chilo suppressalis Walker). […] The test larvae were used in groups of 20 individuals each.

Data set [2] has as its system green rice leafhoppers (Nephotettix cincticeps Uhler). Kind of data set: Mortality test with green rice leafhoppers by topical application method. Particulars: Nephotettix cincticeps, in Oryza sativa, 24 h; for LD50: read-out: LD50 (median lethal dose), topical, green rice leafhoppers; for mortality at 10 ng: read-out: Pesticidal effect, green rice leafhopper. The protocol:
Mortality test with green rice leafhoppers (Nephotettix cincticeps Uhler) by topical application method
Then, the insects were kept at 25° C. with access to rice plant seedlings. The insects were used in groups of 15 individuals each.

Data set [3] has as its system two-spotted spider mites (Tetranychus urticae Koch). Kind of data set: Mortality test with two-spotted spider mites by spray application method. The format is in vivo. Conditions: 48 h, 200 ppm spray, two days, read-out: Percent decrease of population (%). The protocol:
Mortality test with two-spotted spider mites (Tetranychus urticae Koch) by spray application method
To a 5% aqueous solution of acetone was added dropwise a small amount of Tween-20 (polyethylene sorbitan monolaurate) as a surfactant. […] From 30 to 50 adult two-spotted spider mites (Tetranychus urticae Koch) were released on the leaves of kidney-bean plants in the dicotyledonous stage in a pot 9 cm in diameter, followed by a spray application of the above solution. The pot was kept in a constant-temperature chamber at 26° C. and two days later the mites were examined for deaths. The percent decrease of population was then calculated.

Data set [4] deals with green rice leafhoppers (Nephotettix cincticeps). The data set can be described thus: Utility Example-6: 0.5% dust on rice seedlings, green rice leafhoppers. It is filed as in vivo. Particulars: 1 kg per 10 ares, 24 hours, resistant to organophosphorus and carbamate pesticides. From the text: A 0.5% dust preparation of each of the cis- and trans-isomers and a 50:50 mixture of the cis- and trans-isomers of Compound (1) and of Compound (2) as prepared by the procedure described in Formulation Example-4 was applied to rice seedlings by means of a bell-jar duster at the rate of 1 kg per 10 ares. Then, 30 green rice leafhoppers (Nephotettix cincticeps) resistant to organophosphorus and carbamate pesticides were released. […] In all cases, the mortality was not less than 90%.

Data set [5] can be described thus: Toxicity test with water-fleas. The format is in vivo, Daphnia pulex. Conditions: water, 25±1° C., read-out: TLm, Water-flea (6 hrs.). As to the method: Toxicity test with water-fleas (Daphnia pulex)
An acetone solution of one of the test compounds as mentioned in Table 10 and Tween-20 (the same surfactant as mentioned hereinbefore) was prepared. To 100 ml of water in a high-walled dish (9 cm in diameter, 7 cm deep) was added the above acetone solution. The mixture was stirred thoroughly to prepare an aqueous solution containing the test compound in a predetermined concentration. This was used as a test water. Twenty water-fleas (Daphnia pulex) were released into each test water which was maintained at 25±1° C. After 6 hours, the water-fleas were examined for deaths. The TLm (median tolerance limit, ppm) was determined.

A short description of data set [6]: Fish toxicity test with killifish. The format is in vivo, Orizias latipes. Conditions: water, killifish, 25±1° C., read-out: TLm (48 hrs.). The procedure, abridged:
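Test compound dispensed from acetone solution into water at set concentrations; ten aerated-water killifish (~0.25 g, ~2.5 cm) held at 25±1° C. Deaths scored after 48 hours; TLm (median tolerance limit, ppm) determined.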

Data set [7] is described as follows: Fish toxicity test with carp. The format is in vivo, Cyprinus carpio L. Conditions: carp, water. The procedure, abridged: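 Compound in acetone with Tween-20 dispersed in 50 L aerated water at a set concentration; five carp (about 6 g, 6 cm) exposed at 21±1° C. Deaths checked after 48 h, and TLm (median tolerance limit, ppm) determined.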
Another data set has as its system fish. Kind of data set: Fish toxicity safety factor (TLm divided by maximum concentration in cover water). Also noted: species or system carp. The method, boiled down:
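Calculated index: carp TLm (ppm) divided by the maximum compound concentration expected in paddy cover water. That concentration assumes 100 l of solution at the pest LC50 applied per 10 ares onto 5 cm deep cover water, all of it entering the water.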

Where [8] appears, read: 48 hrs., 21±1° C., read-out: TLm, Carp (48 hrs.).

Values after ≈ are worked out from the molar mass of the structure shown.

In data set [1], `CC1(C)[C@@H](C=C(Cl)Cl)[C@@H]1C(=O)OCc1cccc(Oc2ccc(Cl)cc2)c1` (relative stereo) [Compound (1) trans-, 3-(4-chlorophenoxy)benzyl trans-2,2-dimethyl-3-(2,2-dichlorovinyl)cyclopropanecarboxylate] registered a mortality at 1 µg/larva of 85% and a mortality at 10 µg/larva of 100%. In addition, in data set [2], the mortality at 0.01 µg/female came out at 100%; the mortality at 0.1 µg/female stood at 100%; the mortality at 1 µg/female was found to be 100%; the LD50 – broadly, the dose expected to kill half of the subjects tested – is 0.68 mg/kg. Besides, the mortality at 200 ppm in data set [3] worked out at 100%. Moreover, the mortality result in data set [4] is on record as “not less than 90%”. In data set [5], the LC50 at 6 h is more than 40 µg/mL. The LC50 at 48 h in data set [6] is more than 10 µg/mL. The LC50 at 48 h in data set [7] (setting [8]) turned out to be 4.5 µg/mL (≈ 10.6 µM).
Regarding `C#CC(OC(=O)[C@@H]1[C@H](C=C(Cl)Cl)C1(C)C)c1cccc(Oc2ccc(Cl)cc2)c1` (relative stereo) [Compound (2) cis-], in data set [1], the mortality at 1 µg/larva stood at 100% and the mortality at 10 µg/larva was found to be 100%. For the same molecule, in data set [2], the mortality at 0.01 µg/female turned out to be 100%, the mortality at 0.1 µg/female came to 100%, the mortality at 1 µg/female amounted to 100% and the LD50 amounted to 0.44 mg/kg. The mortality at 200 ppm in data set [3] came to 100%. Further, in data set [4], the mortality entry is “not less than 90%”. In data set [5], the LC50 at 6 h is more than 40 µg/mL. Also, the LC50 at 48 h in data set [6] is more than 10 µg/mL. Moreover, the LC50 at 48 h in data set [7] (setting [8]) turned out to be 0.83 µg/mL (≈ 1.85 µM).
For `C#CC(OC(=O)[C@@H]1[C@@H](C=C(Cl)Cl)C1(C)C)c1cccc(Oc2ccc(Cl)cc2)c1` (relative stereo) [Compound (2) trans-], in the data set on fish, the “concentration which kills 50% of pests as fraction of concentration which kills 50% of fish” value is reported as “less than 1/28”. In data set [1], this molecule showed a mortality at 1 µg/larva of 100% and a mortality at 10 µg/larva of 100%. In addition, in data set [2], the mortality at 0.01 µg/female was 100%, the mortality at 0.1 µg/female stood at 100%, the mortality at 1 µg/female is 100% and the LD50 came out at 0.45 mg/kg. The mortality at 200 ppm in data set [3] stood at 100%. The mortality result in data set [4] is reported as “not less than 90%”. Further, the LC50 at 6 h in data set [5] is more than 40 µg/mL. Besides, in data set [6], the LC50 at 48 h was more than 10 µg/mL. Besides, the LC50 at 48 h in data set [7] (setting [8]) is more than 10 µg/mL. The LC50 at 48 h in data set [7] (Table 12 and text of Utility Example-1, read-out: Toxicity to fish TLm) was more than 10 µg/mL.
`C#CC(OC(=O)C1C(C=C(Cl)Cl)C1(C)C)c1cccc(Oc2ccc(Cl)cc2)c1` (stereo not drawn) [Compound (2) cis-/trans- = 50:50, 3-(4-chlorophenoxy)-α-ethynylbenzyl 2,2-dimethyl-3-(2,2-dichlorovinyl)cyclopropanecarboxylate]: the “Fish toxicity safety factor” value in the data set on fish (TLm / maximum concentration in cover water at LC50 application (100 l per 10 ares, 5 cm depth)) is listed as 7.4. Moreover, in data set [1], the mortality at 1 µg/larva is 100%, the mortality at 10 µg/larva stood at 100% and the mortality at 0.001 mg is 100%. For the same molecule, in data set [2], the mortality at 0.01 µg/female was found to be 100%, the mortality at 0.1 µg/female turned out to be 100%, the mortality at 1 µg/female stood at 100% and the LD50 was found to be 0.44 mg/kg. For the same molecule, the mortality at 10 ng in data set [2] was 100%. Also, the mortality at 200 ppm in data set [3] was 100%. Also, the mortality entry in data set [4] is on record as “not less than 90%”. Moreover, the LC50 at 6 h in data set [5] was more than 40 µg/mL. Besides, the LC50 at 48 h in data set [6] was more than 10 µg/mL.
On to `CC1(C)C(C=C(Cl)Cl)C1C(=O)OCc1cccc(Oc2ccccc2)c1` (centres unmarked) [Compound (B), Permethrin], for which, in data set [1], the mortality at 1 µg/larva amounted to 95%, the mortality at 10 µg/larva is 100% and the mortality at 0.001 mg came out at 95%. Further, in data set [2], the mortality at 0.01 µg/female came out at 80%, the mortality at 0.1 µg/female came out at 100%, the mortality at 1 µg/female stood at 100% and the LD50 was determined as 1.25 mg/kg. In addition, the mortality at 10 ng in data set [2] turned out to be 80%. Also, in data set [3], the mortality at 200 ppm was determined as 100%. In data set [6], the LC50 at 48 h came out at 0.04 µg/mL (≈ 0.102 µM). Besides, the LC50 at 48 h in data set [7] (setting [8]) turned out to be 0.015 µg/mL (≈ 0.0383 µM).

(Values after US4389412A, “Substituted cyclopropanecarboxylic acid esters and pesticidal compositions containing the same as active ingredient” (priority 1979, dated 1983).)
